From patent US20240174634A1, “Aldehyde Dehydrogenase Inhibitors and Their Therapeutic Use” (priority 2020, published 2024)

Target: T1, ALDH1A3 (Homo sapiens, UniProt P47895)
T1 sequence (P47895 1-512): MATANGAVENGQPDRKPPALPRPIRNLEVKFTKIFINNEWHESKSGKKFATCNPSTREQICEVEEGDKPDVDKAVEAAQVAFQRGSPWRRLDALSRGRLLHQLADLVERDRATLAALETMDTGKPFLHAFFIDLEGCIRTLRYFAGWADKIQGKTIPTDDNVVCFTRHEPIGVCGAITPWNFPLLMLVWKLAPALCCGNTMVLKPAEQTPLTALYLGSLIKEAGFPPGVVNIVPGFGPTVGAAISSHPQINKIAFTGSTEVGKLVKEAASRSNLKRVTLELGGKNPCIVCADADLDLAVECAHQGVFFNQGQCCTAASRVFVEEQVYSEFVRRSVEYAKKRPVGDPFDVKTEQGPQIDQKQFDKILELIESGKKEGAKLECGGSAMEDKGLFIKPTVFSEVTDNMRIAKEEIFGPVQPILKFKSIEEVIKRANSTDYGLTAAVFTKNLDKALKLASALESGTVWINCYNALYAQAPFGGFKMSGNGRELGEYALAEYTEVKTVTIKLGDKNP
Assay: ALDH1A3 cellular assay (ALDEFLUOR) in WM266.4 melanoma cells
Format: cell-based
Conditions: WM266.4 cells; 60 min incubation; percentage of ALDH-positive cells
From the text: Materials: WM266.4 cells were procured from ATCC. (WM266-4 is a metastatic human melanoma cell line.) The ALDEFLUOR™ Assay kit (cat. no. 01700) and Aldefluor buffer (cat. no. 01702) were procured from StemCell Technologies. Dulbecco's Modified Eagle Medium (DMEM), FluoroBrite DMEM, Glutamax and Hoechst 33342 were purchased from ThermoFisher. Verapamil was obtained from Fluorochem. FBS was obtained from Sigma. Echo Qualified 384-well low-dead-volume microplate and Echo Qualified 384-well polypropylene microplate were purchased from Labcyte, and the Microclear black sterile polystyrene microplate from Greiner Bio-One.
Method: Intracellular inhibition of ALDH1A3 was assessed using the ALDEFLUOR™ Assay kit. The activated ALDEFLUOR™ reagent, BODIPY-aminoacetaldehyde (BAAA), is a fluorescent non-toxic substrate for ALDH enzymes, which freely diffuses into intact and viable cells. In the presence of ALDH enzyme activity, BAAA is converted into BODIPY-aminoacetate (BAA), which is retained inside the cells. The amount of fluorescent reaction product is proportional to the ALDH activity in the cells and is measured using an imaging cytometer. Active efflux of the reaction product is inhibited by an efflux inhibitor (Verapamil) in the ALDEFLUOR™ Assay Buffer.
A frozen vial of cells was recovered into a T225 flask containing DMEM, high glucose, 10% FBS, 1% glutamax, 1% HEPES. The following day, media was changed and cells were ready for assay from 72 hours after recovery. Cells were transferred into FluoroBrite DMEM (plus 10% FBS, 1% glutamax and 1% HEPES) and diluted to 2.5×10^5 cells/mL. 30 μL of cells were added to each well to give 7500 cells/well and then incubated overnight at 37° C., 5% CO2. After overnight incubation, the media was aspirated and replaced by 20 μL substrate/Hoechst buffer solution. Each plate requires 9 mL of solution comprising, 9 mL ALDEFLUOR assay buffer, 18 μL BAAA substrate (final concentration 500 nM), 4.5 μL Hoechst 33342 (final concentration 5 μg/mL) and 4.5 μL Verapamil (final concentration 50 μM). Compounds were prepared for dosing using the Echo acoustic dispenser by aliquoting into a source plate and dosed directly onto the cell assay plate to give a 10 point dose response per compound ranging from 10 μM to 0.0005 μM final concentration in 3-fold dilution steps. Plates were then incubated for 60 minutes at 37° C., 5% CO2. The buffer was then aspirated and cells washed twice in ice-cold PBS. Plates were kept on ice and 30 μL of cold Aldefluor buffer with 50 μM verapamil dispensed per well. The plates were then imaged using the CellInsight fluorescent microscope. Hoechst fluorescence in the 405 nm channel indicated the nuclear area and this was used to define nuclei and then the surrounding cellular area. Fluorescence in the 488 nm channel of the defined cellular area indicates ALDH1A3 activity. The percentage of cells positive for ALDH activity was plotted versus compound concentration to generate EC50 values using curve fitting parameters defined in Dotmatics software.

Q: For Cc1nc(C2CCCN2CCOc2ccc3c(c2)CCC(=O)N3)cs1 (stereo not drawn) [ALDHI-2033, 6-[2-[2-(2-methylthiazol-4-yl)pyrrolidin-1-yl]ethoxy]-3,4-dihydro-1H-quinolin-2-one], which IC50 is on record?
A: 1000 to 10000 nM

Q: How did the IC50 turn out when Cc1ccc(C2CCCN2CCOc2ccc3c(c2)CCC(=O)N3)cn1 (stereo not drawn) [ALDHI-2030, 6-[2-[2-(6-methyl-3-pyridyl)pyrrolidin-1-yl]ethoxy]-3,4-dihydro-1H-quinolin-2-one] was run?
A: 100 to 1000 nM

Q: O=C1CCc2cc(OCCN3CCCCC3c3cccc(F)c3)ccc2N1 (stereo not drawn) [ALDHI-2038, 6-[2-[2-(3-fluorophenyl)-1-piperidyl]ethoxy]-3,4-dihydro-1H-quinolin-2-one] was tested. Which IC50 did it give?
A: 1000 to 10000 nM

Q: For C[C@H](c1ccccc1)N(CCO)CCOc1ccc2c(c1)CCC(=O)N2 [ALDHI-3006, 6-[2-[2-hydroxyethyl-[(1R)-1-phenylethyl]amino]ethoxy]-3,4-dihydro-1H-quinolin-2-one], which IC50 is on record?
A: 100 to 1000 nM

Q: With O=C1CCc2cc(OCCN3CCCC3c3cc(F)cc(F)c3)ccc2N1 (stereo not drawn) [ALDHI-2032, 6-[2-[2-(3,5-difluorophenyl)pyrrolidin-1-yl]ethoxy]-3,4-dihydro-1H-quinolin-2-one] as the compound, how does the IC50 read?
A: < 100 nM

Q: With O=C1CCc2cc(OCCN3CC(F)CC3c3cccc(F)c3)ccc2N1 (stereo not drawn) [ALDHI-2052, 6-[2-[4-fluoro-2-(3-fluorophenyl)pyrrolidin-1-yl]ethoxy]-3,4-dihydro-1H-quinolin-2-one] as the compound, how does the IC50 read?
A: < 100 nM

Q: With CN(CCOc1ccc2c(c1)CCC(=O)N2)C(=O)c1cccnc1 [ALDHI-3013, N-methyl-N-[2-[(2-oxo-3,4-dihydro-1H-quinolin-6-yl)oxy]ethyl]pyridine-3-carboxamide] as the compound, how does the IC50 read?
A: 1000 to 10000 nM

Q: How did the IC50 turn out when O=C1CCc2cc(OCCN3CCOCC3c3cccc(F)c3)ccc2N1 (stereo not drawn) [ALDHI-2031, 6-[2-[3-(3-fluorophenyl)morpholin-4-yl]ethoxy]-3,4-dihydro-1H-quinolin-2-one] was run?
A: < 100 nM

Q: With O=C1COc2cc(OCCN3CCCC3c3cccc(F)c3)ccc2N1 (stereo not drawn) [ALDHI-2009, 7-[2-[2-(3-fluorophenyl)pyrrolidin-1-yl]ethoxy]-4H-1,4-benzoxazin-3-one] as the compound, how does the IC50 read?
A: 100 to 1000 nM

Q: With O=C1CCc2cc(OCCN3C(=O)CCC3c3ccccc3)ccc2N1 (stereo not drawn) [ALDHI-2051, 6-[2-(2-oxo-5-phenyl-pyrrolidin-1-yl)ethoxy]-3,4-dihydro-1H-quinolin-2-one] as the compound, how does the IC50 read?
A: < 100 nM

Q: How did the IC50 turn out when CCC1Oc2cc(OCCN3CCCC3c3cccc(F)c3)ccc2NC1=O (stereo not drawn) [ALDHI-2045, 2-ethyl-7-[2-[2-(3-fluorophenyl)pyrrolidin-1-yl]ethoxy]-4H-1,4-benzoxazin-3-one] was run?
A: < 100 nM

Q: For O=C1CCc2cc(OCCN3CCCC3c3ccccn3)ccc2N1 (stereo not drawn) [ALDHI-2006, 6-[2-[2-(2-pyridyl)pyrrolidin-1-yl]ethoxy]-3,4-dihydro-1H-quinolin-2-one], which IC50 is on record?
A: 1000 to 10000 nM

Q: For CC1(c2ccccc2)COCCN1CCOc1ccc2c(c1)CCC(=O)N2 (stereo not drawn) [ALDHI-2040, 6-[2-(3-methyl-3-phenyl-morpholin-4-yl)ethoxy]-3,4-dihydro-1H-quinolin-2-one], which IC50 is on record?
A: 100 to 1000 nM

Q: Which IC50 does the source give for Cn1cc(C2CCCN2CCOc2ccc3c(c2)SCC(=O)N3)cn1 (stereo not drawn) [ALDHI-2026, 7-[2-[2-(1-methylpyrazol-4-yl)pyrrolidin-1-yl]ethoxy]-4H-1,4-benzothiazin-3-one] here?
A: 1000 to 10000 nM

Q: O=C1CCc2cc(OCCN3CCC[C@H]3c3cccc(F)c3)ccc2N1 [ALDHI-2018, 6-[2-[(2S)-2-(3-fluorophenyl)pyrrolidin-1-yl]ethoxy]-3,4-dihydro-1H-quinolin-2-one] was tested. Which IC50 did it give?
A: < 100 nM

Q: O=C1CCCc2cc(OCCN3CCCC3c3cccc(F)c3)ccc2N1 (stereo not drawn) [ALDHI-2020, 7-[2-[2-(3-fluorophenyl)pyrrolidin-1-yl]ethoxy]-1,3,4,5-tetrahydro-1-benzazepin-2-one] was tested. Which IC50 did it give?
A: 100 to 1000 nM

Q: O=C1CCc2cc(OCCN3CCCC3c3ccccc3F)ccc2N1 (stereo not drawn) [ALDHI-2002, 6-[2-[2-(2-fluorophenyl)pyrrolidin-1-yl]ethoxy]-3,4-dihydro-1H-quinolin-2-one] was tested. Which IC50 did it give?
A: 1000 to 10000 nM

Q: For O=C1CCc2cc(OCCN3CCCC3c3ccccc3)ccc2N1 (stereo not drawn) [ALDHI-2019, 6-[2-(2-phenylpyrrolidin-1-yl)ethoxy]-3,4-dihydro-1H-quinolin-2-one], which IC50 is on record?
A: 100 to 1000 nM

Q: With Cc1cccc(C2CCCN2CCOc2ccc3c(c2)CCC(=O)N3)c1 (stereo not drawn) [ALDHI-2011, 6-[2-[2-(m-tolyl)pyrrolidin-1-yl]ethoxy]-3,4-dihydro-1H-quinolin-2-one] as the compound, how does the IC50 read?
A: 1000 to 10000 nM

Q: Which IC50 does the source give for O=c1ccc2cc(OCCN3CCCC3c3cccc(F)c3)ccc2[nH]1 (stereo not drawn) [ALDHI-2022, 6-[2-[2-(3-fluorophenyl)pyrrolidin-1-yl]ethoxy]-1H-quinolin-2-one] here?
A: 100 to 1000 nM

Q: With CN(CCOc1ccc2c(c1)CCC(=O)N2)Cc1cccc(F)c1 [ALDHI-3001, 6-[2-[(3-fluorophenyl)methyl-methyl-amino]ethoxy]-3,4-dihydro-1H-quinolin-2-one] as the compound, how does the IC50 read?
A: 100 to 1000 nM

Q: Which IC50 does the source give for O=C1CCc2cc(OCCN3CCC3c3cccc(F)c3)ccc2N1 (stereo not drawn) [ALDHI-2021, 6-[2-[2-(3-fluorophenyl)azetidin-1-yl]ethoxy]-3,4-dihydro-1H-quinolin-2-one] here?
A: 1000 to 10000 nM

Q: For O=C1CCc2cc(OCCn3nccc3-c3cccc(F)c3)ccc2N1 [ALDHI-2023, 6-[2-[5-(3-fluorophenyl)pyrazol-1-yl]ethoxy]-3,4-dihydro-1H-quinolin-2-one], which IC50 is on record?
A: < 100 nM

Q: For O=C1CCc2cc(OCCN(CCO)Cc3cccc(F)c3)ccc2N1 [ALDHI-3002, 6-[2-[(3-fluorophenyl)methyl-(2-hydroxyethyl)amino]ethoxy]-3,4-dihydro-1H-quinolin-2-one], which IC50 is on record?
A: < 100 nM

Q: How did the IC50 turn out when O=C1CCc2cc(OCCN3CCC[C@@H]3c3cccc(F)c3)ccc2N1 [ALDHI-2007, 6-[2-[(2R)-2-(3-fluorophenyl)pyrrolidin-1-yl]ethoxy]-3,4-dihydro-1H-quinolin-2-one] was run?
A: < 100 nM

Q: For CN(C)c1nc(-c2cccc(F)c2)c(C(=O)Nc2ccc3c(c2)CCC(=O)N3)s1 [ALDHI-1002, 2-(dimethylamino)-4-(3-fluorophenyl)-N-(2-oxo-3,4-dihydro-1H-quinolin-6-yl)thiazole-5-carboxamide], which IC50 is on record?
A: < 100 nM

Q: With CCn1cc(C2CCCN2CCOc2ccc3c(c2)CCC(=O)N3)cn1 (stereo not drawn) [ALDHI-2016, 6-[2-[2-(1-ethylpyrazol-4-yl)pyrrolidin-1-yl]ethoxy]-3,4-dihydro-1H-quinolin-2-one] as the compound, how does the IC50 read?
A: 1000 to 10000 nM

Q: Which IC50 does the source give for CC1(c2cccc(F)c2)CCCN1CCOc1ccc2c(c1)CCC(=O)N2 (stereo not drawn) [ALDHI-2037, 6-[2-[2-(3-fluorophenyl)-2-methyl-pyrrolidin-1-yl]ethoxy]-3,4-dihydro-1H-quinolin-2-one] here?
A: < 100 nM

Q: How did the IC50 turn out when CC1(C)Oc2cc(OCCN3CCCC3c3cccc(F)c3)ccc2NC1=O (stereo not drawn) [ALDHI-2043, 7-[2-[2-(3-fluorophenyl)pyrrolidin-1-yl]ethoxy]-2,2-dimethyl-4H-1,4-benzoxazin-3-one] was run?
A: 100 to 1000 nM

Q: For O=C1CCc2cc(OCCN3CCCC3c3ccncc3)ccc2N1 (stereo not drawn) [ALDHI-2004, 6-[2-[2-(4-pyridyl)pyrrolidin-1-yl]ethoxy]-3,4-dihydro-1H-quinolin-2-one], which IC50 is on record?
A: 1000 to 10000 nM

Q: How did the IC50 turn out when O=C1CCc2cc(NC(=O)c3scnc3-c3cccc(F)c3)ccc2N1 [ALDHI-1003, 4-(3-fluorophenyl)-N-(2-oxo-3,4-dihydro-1H-quinolin-6-yl)thiazole-5-carboxamide] was run?
A: < 100 nM

Q: Which IC50 does the source give for CCN(CC)CCN(CCOc1ccc2c(c1)CCC(=O)N2)Cc1ccccc1 [ALDHI-3004, 6-[2-[benzyl-[2-(diethylamino)ethyl]amino]ethoxy]-3,4-dihydro-1H-quinolin-2-one] here?
A: < 100 nM

Q: How did the IC50 turn out when CN(CCOc1ccc2c(c1)CCC(=O)N2)Cc1cccnc1 [ALDHI-3010, 6-[2-[methyl(3-pyridylmethyl)amino]ethoxy]-3,4-dihydro-1H-quinolin-2-one] was run?
A: 100 to 1000 nM
